pIC50: −log10 of the molar value.
Molecular target: T1, SGK1 (Homo sapiens, UniProt O00141)
T1 sequence (O00141 1-431): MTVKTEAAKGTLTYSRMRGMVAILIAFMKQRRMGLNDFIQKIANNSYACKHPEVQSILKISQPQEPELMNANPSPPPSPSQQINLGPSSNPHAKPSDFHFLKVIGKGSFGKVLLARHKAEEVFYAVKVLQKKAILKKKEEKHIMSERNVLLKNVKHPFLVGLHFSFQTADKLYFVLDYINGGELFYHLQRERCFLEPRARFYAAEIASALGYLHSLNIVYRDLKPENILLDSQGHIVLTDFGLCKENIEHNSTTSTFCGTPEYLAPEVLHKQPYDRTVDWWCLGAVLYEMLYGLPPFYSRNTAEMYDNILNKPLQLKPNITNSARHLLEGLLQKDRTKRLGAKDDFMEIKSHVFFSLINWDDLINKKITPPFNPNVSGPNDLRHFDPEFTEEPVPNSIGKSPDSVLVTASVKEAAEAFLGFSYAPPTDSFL
Assay: SGK1 inhibition Assay B (Echo mass spectrometry of phosphorylated peptide product)
Type: biochemical
Conditions: 60 min at room temperature

Row | Molecule | pIC50
1 | CCC(C)(C)NC1CCC(Oc2nc(C)sc2C(=O)N[C@@H]2CCCN(c3cc(C4=C(C)C(=O)OC4)n4ncnc(N)c34)C2)CC1 (stereo partly drawn) [Example 1005, (R)—N-(1-(4-amino-7-(4-methyl-5-oxo-2,5-dihydrofuran-3-yl)pyrrolo[2,1-f][1,2,4]triazin-5-yl)piperidin-3-yl)-2-methyl-4-((4-(tert-pentylamino)cyclohexyl)oxy)thiazole-5-carboxamide] | 9.30
2 | COc1nccc(-c2cc(N3CCC[C@@H](NC(=O)c4sc(C)nc4O[C@H]4CC[C@@H](N5CCCC5)CC4)C3)c3c(N)ncnn23)n1 [Example 1029, N—((R)-1-(4-amino-7-(2-methoxypyrimidin-4-yl)pyrrolo[2,1-f][1,2,4]triazin-5-yl)piperidin-3-yl)-2-methyl-4-(((1s,4S)-4-(pyrrolidin-1-yl)cyclohexyl)oxy)thiazole-S-carboxamidemorpholinothiophene-2-carboxamide] | 10.00
3 | COC[C@@H](C)N[C@H]1CC[C@@H](Oc2nc(C)sc2C(=O)N[C@@H]2CCCN(c3cc(C4=C(C)C(=O)OC4)n4ncnc(N)c34)C2)CC1 [Example 1007, N-((R)-1-(4-amino-7-(4-methyl-5-oxo-2.5-dihydrofuran-3-yl)pyrrolo[2,1-f][1,2,4]triazin-5-y1)piperidin-3-y1)-4-((4-(((R)-1-methoxypropan-2-yl)amino)cyclohexyl)oxy)-2~methylthiazole-5-carboxamide] | 9.00
4 | COC[C@@H](C)NC1CCC(Oc2nc(C)sc2C(=O)N[C@@H]2CCCN(c3cc(-c4ccc(C(N)=O)c(F)n4)n4ncnc(N)c34)C2)CC1 (stereo partly drawn) [Example 1040] | 8.77
5 | Cc1cc(-c2cc(N3CCC[C@@H](NC(=O)c4sc(C)nc4O[C@H]4CC[C@@H](N(C)C)CC4)C3)c3c(N)ncnn23)cnn1 [Example 1046] | 7.80
6 | CC(C)N1CC2(CN(c3cccc(C(=O)N[C@@H]4CCCN(c5cc(-c6ccc(C#N)c(F)c6)n6ncnc(N)c56)C4)n3)C2)C1 [Example 818, (R)-N-(1-(4-amino-7-(4-cyano-3-fluorophenyl)pyrrolo[2,1-f][1,2,4]triazin-5-yl)piperidin-3-yl)-6-(6-isopropyl-2,6-diazaspiro[3.3]heptan-2-yl)picolinamide] | 8.52
7 | CCC1=C(c2cc(N3CCC[C@@H](NC(=O)c4sc(C)nc4OC4CCC(N5CC(O)C5)CC4)C3)c3c(N)ncnn23)COC1=O (single isomer, unassigned) [Example 1021] | 9.15
8 | Cc1nc(O[C@H]2CC[C@@H](NC3CCOCC3)CC2)c(C(=O)N[C@@H]2CCCN(c3cc(C4=CC(=O)OC4)n4ncnc(N)c34)C2)s1 [Example 1002, N—((R)-1-(4-amino-7-(5-oxo-2,5-dihydrofuran-3-yl)pyrrolo[2,1-f][1,2,4]triazin-5-yl)piperidin-3-yl)-2-methyl-4-(((1S,4S)-4-((tetrahydro-2H-pyran-4-yl)amino)cyclohexyl)oxy)thiazole-5-carboxamide] | 9.52
9 | N#Cc1ccc(C(=O)N[C@@H]2CCCN(c3cc(-c4cnc(-n5cnnn5)c(F)c4)n4ncnc(N)c34)C2)s1 [Example 860, (R)-N-(1-(4-amino-7-(5-fluoro-6-(1H-tetrazol-1-yl)pyridin-3-yl)pyrrolo[2,1-f][1,2,4]triazin-5-yl)piperidin-3-yl)-5-cyanothiophene-2-carboxamide] | 8.52
10 | CCC1=C(c2cc(N3CCC[C@@H](NC(=O)c4sc(C)nc4OC4CCC(N[C@H](C)COC)CC4)C3)c3c(N)ncnn23)COC1=O (single isomer, unassigned) [Example 1024] | 9.10
11 | CN1CCN(c2cccc(C(=O)N[C@@H]3CCCN(c4cc(-c5ccc6[nH]ncc6c5)n5ncnc(N)c45)C3)n2)CC1 [Example 806, (R)-N-(1-(4-amino-7-(1H-indazol-5-yl)pyrrolo[2,1-f][1,2,4]triazin-5-yl)piperidin-3-yl)-6-(4-methylpiperazin-1-yl)picolinamide] | 6.87
12 | CC(=O)c1ccc(-c2cc(N3CCC[C@@H](NC(=O)c4ccnc(N5CCN(C)CC5)n4)C3)c3c(N)ncnn23)cn1 [Example 851, (R)-N-(1-(7-(6-acetylpyridin-3-yl)-4-aminopyrrolo[2,1-f][1,2,4]triazin-5-yl)piperidin-3-yl)-2-(4-methylpiperazin-1-yl)pyrimidine-4-carboxamide] | 7.74
13 | N—((R)-1-(4-amino-7-(2-(tert-butyl)-1,1-dioxido-2,3-dihydrobenzo[d]isothiazol-5-yl)pyrrolo[2,1-f][1,2,4]triazin-5-yl)piperidin-3-yl)-5-chloro-3-(((1R,3s,5S)-8-methyl-8-azabicyclo [3.2.1]octan-3-yl)oxy)thiophene-2-carboxamide [Example 967] | 9.05
14 | [2H]C([2H])([2H])N([C@H]1CC[C@@H](Oc2nc(C)sc2C(=O)N[C@@H]2CCCN(c3cc(C4=CC(=O)OC4)n4ncnc(N)c34)C2)CC1)C([2H])([2H])[2H] [Example 1004, N—((R)-1-(4-amino-7-(5-oxo-2,5-dihydrofuran-3-yl)pyrrolo[2,1-f][1,2,4]triazin-5-yl)piperidin-3-yl)-4-(((1S,4S)-4-(bis(methyl-d3)amino)cyclohexyl)oxy)-2-methylthiazole-5-carboxamide] | 9.05
15 | CCC(C)(C)NC1CCC(Oc2nc(C)sc2C(=O)N[C@@H]2CCCN(c3cc(-c4ccc(C(N)=O)c(F)n4)n4ncnc(N)c34)C2)CC1 (stereo partly drawn) [Example 1055, (R)—N-(1-(4-amino-7-(5-carbamoyl-6-fluoropyridin-2-yl)pyrrolo[2,1-f][1,2,4]triazin-5-yl)piperidin-3-yl)-2-methyl-4-((4-(tert-pentylamino)cyclohexyl)oxy)thiazole-5-carboxamide] | 9.30
16 | Cc1nc(OC2COC3(CCNCC3)C2)c(C(=O)N[C@@H]2CCCN(c3cc(-c4ccc(C(N)=O)c(F)c4)n4ncnc(N)c34)C2)s1 (single isomer, unassigned) [Example 954] | 8.40
17 | Cc1nc(OC2CCC(N3CC(O)C3)CC2)c(C(=O)N[C@@H]2CCCN(c3cc(C4=CC(=O)OC4)n4ncnc(N)c34)C2)s1 (stereo partly drawn) [Example 997, (R)-N-(1-(4-amino-7-(5-oxo-2,5-dihydrofuran-3-y1)pyrrolo[2,1-f] [1,2,4]triazin-5-y1)piperidin-3-y1)-4-((4~(3-hydroxyazetidin-1-yl)cyclohexyl)oxy)-2-methylthiazole-5-carboxamide] | 9.22
18 | Cc1nc(OC2CC3CCC2CN3C)c(C(=O)N[C@@H]2CCCN(c3cc(-c4ccc(-n5cnnn5)nc4)n4ncnc(N)c34)C2)s1 (single isomer, unassigned) [Example 992] | 8.00
19 | CCN1CCC(Oc2nc(C)sc2C(=O)N[C@@H]2CCCN(c3cc(-c4ccc(C(N)=O)c(F)c4)n4ncnc(N)c34)C2)CC12CCC2 (stereo partly drawn) [Example 982] | 8.22
20 | N#Cc1ccc(-c2cc(N3CCC[C@@H](NC(=O)c4sc(Cl)cc4O[C@@H]4CN5CCC4CC5)C3)c3c(N)ncnn23)cn1 [Example 950, N—((R)-1-(4-Amino-7-(6-cyanopyridin-3-yl)pyrrolo[2,1-f][1,2,4]triazin-5-yl)piperidin-3-yl)-5-chloro-3-(((S)-quinuclidin-3-yl)oxy)thiophene-2-carboxamide] | 9.22
21 | CC(C)N1CC2(CN(c3cccc(C(=O)N[C@@H]4CCCN(c5cc(-c6cnc(-n7cnnn7)c(F)c6)n6ncnc(N)c56)C4)n3)C2)C1 [Example 830, (R)-N-(1-(4-amino-7-(5-fluoro-6-(1H-tetrazol-1-yl)pyridin-3-yl)pyrrolo[2,1-f][1,2,4]triazin-5-yl)piperidin-3-yl)-6-(6-isopropyl-2,6-diazaspiro[3.3]heptan-2-yl)picolinamide] | 8.40
22 | Cc1nc(OC2CCC(N3CCC3)CC2)c(C(=O)N[C@@H]2CCCN(c3cc(C#N)n4ncnc(N)c34)C2)s1 (stereo partly drawn) [Example 1049, (R)—N-(1-(4-amino-7-cyanopyrrolo[2,1-f][1,2,4]triazin-5-yl)piperidin-3-yl)-4-((4-(azetidin-1-yl)cyclohexyl)oxy)-2-methylthiazole-5-carboxamide] | 8.72
23 | CC(C)N1CC2CCC1CC2Oc1cc(Cl)sc1C(=O)N[C@@H]1CCCN(c2cc(-c3ccc(-n4cnnn4)nc3)n3ncnc(N)c23)C1 (stereo partly drawn) [Example 989, N—((R)-1-(7-(6-(1H-tetrazol-1-yl)pyridin-3-yl)-4-aminopyrrolo[2,1-f][1,2,4]triazin-5-yl)piperidin-3-yl)-5-chloro-3-((2-isopropyl-2-azabicyclo[2.2.2]octan-5-yl)oxy)thiophene-2-carboxamide] | 9.05
24 | COC(=O)N1CC=C(c2cc(N3CCC[C@@H](NC(=O)c4sc(C)nc4OC4CC5CC(C4)N(C(C)C)C5)C3)c3c(N)ncnn23)C1 (single isomer, unassigned) [Example 953] | 8.15
25 | Nc1ncnn2c(-c3ccc(-n4cnnn4)c(F)c3)cc(N3CCC[C@@H](NC(=O)c4sc(Cl)cc4OC4CCC(O)CC4)C3)c12 (single isomer, unassigned; isomer 2) [Example 935] | 9.70
26 | COc1nc(-c2cc(N3CCC[C@@H](NC(=O)c4sc(C)nc4OC4CCC(N5CCC[C@@H]5C)CC4)C3)c3c(N)ncnn23)ccc1C(N)=O (stereo partly drawn) [Example 1043, N—((R)-1-(4-amino-7-(5-carbamoyl-6-methoxypyridin-2-yl)pyrrolo[2,1-f] [1,2,4]triazin-5-yl)piperidin-3-yl)-2-methyl-4-((4-((S)-2-methylpyrrolidin-1-yl)cyclohexyl)oxy) thiazole-5-carboxamide] | 8.68
27 | CCC1=C(c2cc(N3CCC[C@@H](NC(=O)c4sc(C)nc4O[C@H]4CC[C@@H](NC(C)CO)CC4)C3)c3c(N)ncnn23)COC1=O (single isomer, unassigned) [Example 1020] | 8.96

Source: patent US20260250290A1 (BRISTOL-MYERS SQUIBB COMPANY, priority 2023, published 2026)
